Measurements reported in patent publication US20160168126A1, “CHEMICAL COMPOUNDS” (SYNGENTA LIMITED, priority 2013, published 2016).

System: a variety of test species
Experiment: Post-emergence herbicidal activity (glasshouse, sprayed 8 days after sowing, evaluated after 13 days)
Assay type: in vivo
Details: scale 0-5
Summary of the method: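 Visual herbicidal injury (0 = no damage, 5 = plant killed) recorded 13 days post-treatment. Treatment consisted of a single spray onto emerged seedlings at day 8; conditions before and after were 24/16 °C, 14 h light, 65% humidity.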

CCC(C)(OC)c1cc(N2C(=O)C(C)=C(Cl)C2O)nn1C (mixture of isomers) [Compound B13]
Post-emergence herbicidal damage score, ABUTH (Abutilon theophrasti) (1000 g/ha): 5 | Post-emergence herbicidal damage score, ALOMY (Alopecurus myosuroides) (1000 g/ha): 3 | Post-emergence herbicidal damage score, AMARE (Amaranthus retroflexus) (1000 g/ha): 3 | Post-emergence herbicidal damage score, ECHCG (Echinochloa crus-galli) (1000 g/ha): 2 | Post-emergence herbicidal damage score, SETFA (Setaria faberi) (1000 g/ha): 4 | Post-emergence herbicidal damage score, ZEAMX (Zea mays) (1000 g/ha): 0

CC1=C(Cl)C(O)N(c2cc(C)n(C(F)F)n2)C1=O (stereo not drawn) [Compound C6]
Post-emergence herbicidal damage score, ABUTH (Abutilon theophrasti) (1000 g/ha): 1 | Post-emergence herbicidal damage score, ALOMY (Alopecurus myosuroides) (1000 g/ha): 0 | Post-emergence herbicidal damage score, AMARE (Amaranthus retroflexus) (1000 g/ha): 2 | Post-emergence herbicidal damage score, ECHCG (Echinochloa crus-galli) (1000 g/ha): 0 | Post-emergence herbicidal damage score, SETFA (Setaria faberi) (1000 g/ha): 2 | Post-emergence herbicidal damage score, ZEAMX (Zea mays) (1000 g/ha): 1

CC(C)=CCc1cc(N2C(=O)C(C)=C(Cl)C2O)nn1C (stereo not drawn) [Compound B10, 3-chloro-2-hydroxy-4-methyl-1-[1-methyl-5-(3-methylbut-2-enyl)pyrazol-3-yl]-2H-pyrrol-5-one]
Post-emergence herbicidal damage score, ABUTH (Abutilon theophrasti) (1000 g/ha): 2 | Post-emergence herbicidal damage score, ALOMY (Alopecurus myosuroides) (1000 g/ha): 0 | Post-emergence herbicidal damage score, AMARE (Amaranthus retroflexus) (1000 g/ha): 0 | Post-emergence herbicidal damage score, ECHCG (Echinochloa crus-galli) (1000 g/ha): 2 | Post-emergence herbicidal damage score, SETFA (Setaria faberi) (1000 g/ha): 3 | Post-emergence herbicidal damage score, ZEAMX (Zea mays) (1000 g/ha): 0

CC1=C(Cl)C(O)N(c2cc(C(C)(C)C)n(C)n2)C1=O (stereo not drawn) [Compound B2, 1-(5-tert-butyl-1-methyl-1H-pyrazol-3-yl)-4-chloro-5-hydroxy-3-methyl-1,5-dihydro-pyrrol-2-one]
Post-emergence herbicidal damage score, ABUTH (Abutilon theophrasti) (1000 g/ha): 5 | Post-emergence herbicidal damage score, ALOMY (Alopecurus myosuroides) (1000 g/ha): 5 | Post-emergence herbicidal damage score, AMARE (Amaranthus retroflexus) (1000 g/ha): 5 | Post-emergence herbicidal damage score, ECHCG (Echinochloa crus-galli) (1000 g/ha): 5 | Post-emergence herbicidal damage score, SETFA (Setaria faberi) (1000 g/ha): 5 | Post-emergence herbicidal damage score, ZEAMX (Zea mays) (1000 g/ha): 2

C=C(C)c1cc(N2C(=O)C(C)=C(Cl)C2O)nn1C (stereo not drawn) [Compound B25]
Post-emergence herbicidal damage score, ABUTH (Abutilon theophrasti) (1000 g/ha): 5 | Post-emergence herbicidal damage score, ALOMY (Alopecurus myosuroides) (1000 g/ha): 4 | Post-emergence herbicidal damage score, AMARE (Amaranthus retroflexus) (1000 g/ha): 5 | Post-emergence herbicidal damage score, ECHCG (Echinochloa crus-galli) (1000 g/ha): 5 | Post-emergence herbicidal damage score, SETFA (Setaria faberi) (1000 g/ha): 5 | Post-emergence herbicidal damage score, ZEAMX (Zea mays) (1000 g/ha): 2

CC1=C(Br)C(O)N(c2cc3n(n2)CCC3(C)C)C1=O (stereo not drawn) [Compound H7]
Post-emergence herbicidal damage score, ABUTH (Abutilon theophrasti) (1000 g/ha): 5 | Post-emergence herbicidal damage score, ALOMY (Alopecurus myosuroides) (1000 g/ha): 5 | Post-emergence herbicidal damage score, AMARE (Amaranthus retroflexus) (1000 g/ha): 4 | Post-emergence herbicidal damage score, ECHCG (Echinochloa crus-galli) (1000 g/ha): 3 | Post-emergence herbicidal damage score, SETFA (Setaria faberi) (1000 g/ha): 4 | Post-emergence herbicidal damage score, ZEAMX (Zea mays) (1000 g/ha): 1

CSc1cc(N2C(=O)C(C)=C(Cl)C2O)nn1C (stereo not drawn) [Compound B17]
Post-emergence herbicidal damage score, ABUTH (Abutilon theophrasti) (1000 g/ha): 4 | Post-emergence herbicidal damage score, ALOMY (Alopecurus myosuroides) (1000 g/ha): 2 | Post-emergence herbicidal damage score, AMARE (Amaranthus retroflexus) (1000 g/ha): 3 | Post-emergence herbicidal damage score, ECHCG (Echinochloa crus-galli) (1000 g/ha): 4 | Post-emergence herbicidal damage score, SETFA (Setaria faberi) (1000 g/ha): 5 | Post-emergence herbicidal damage score, ZEAMX (Zea mays) (1000 g/ha): 1

CC1=C(Cl)C(O)N(c2cc(C(C)C)[nH]n2)C1=O (stereo not drawn) [Compound A3]
Post-emergence herbicidal damage score, ABUTH (Abutilon theophrasti) (250 g/ha): 5 | Post-emergence herbicidal damage score, ALOMY (Alopecurus myosuroides) (250 g/ha): 5 | Post-emergence herbicidal damage score, AMARE (Amaranthus retroflexus) (250 g/ha): 5 | Post-emergence herbicidal damage score, ECHCG (Echinochloa crus-galli) (250 g/ha): 5 | Post-emergence herbicidal damage score, SETFA (Setaria faberi) (250 g/ha): 4 | Post-emergence herbicidal damage score, ZEAMX (Zea mays) (250 g/ha): 1

CCn1nc(N2C(=O)C(C)=C(Cl)C2O)cc1C(C)(C)C (stereo not drawn) [Compound C2]
Post-emergence herbicidal damage score, ABUTH (Abutilon theophrasti) (1000 g/ha): 5 | Post-emergence herbicidal damage score, ALOMY (Alopecurus myosuroides) (1000 g/ha): 3 | Post-emergence herbicidal damage score, AMARE (Amaranthus retroflexus) (1000 g/ha): 4 | Post-emergence herbicidal damage score, ECHCG (Echinochloa crus-galli) (1000 g/ha): 4 | Post-emergence herbicidal damage score, SETFA (Setaria faberi) (1000 g/ha): 4 | Post-emergence herbicidal damage score, ZEAMX (Zea mays) (1000 g/ha): 0

CC1=C(Br)C(O)N(c2nn(C)c3c2CCC3(C)C)C1=O (stereo not drawn) [Compound H10]
Post-emergence herbicidal damage score, ABUTH (Abutilon theophrasti) (1000 g/ha): 5 | Post-emergence herbicidal damage score, ALOMY (Alopecurus myosuroides) (1000 g/ha): 5 | Post-emergence herbicidal damage score, AMARE (Amaranthus retroflexus) (1000 g/ha): 5 | Post-emergence herbicidal damage score, ECHCG (Echinochloa crus-galli) (1000 g/ha): 4 | Post-emergence herbicidal damage score, SETFA (Setaria faberi) (1000 g/ha): 5 | Post-emergence herbicidal damage score, ZEAMX (Zea mays) (1000 g/ha): 3

CC1=C(Cl)C(O)N(c2cc(C(F)(F)F)n(C)n2)C1=O (stereo not drawn) [Compound B3]
Post-emergence herbicidal damage score, ABUTH (Abutilon theophrasti) (1000 g/ha): 5 | Post-emergence herbicidal damage score, ALOMY (Alopecurus myosuroides) (1000 g/ha): 5 | Post-emergence herbicidal damage score, AMARE (Amaranthus retroflexus) (1000 g/ha): 5 | Post-emergence herbicidal damage score, ECHCG (Echinochloa crus-galli) (1000 g/ha): 5 | Post-emergence herbicidal damage score, SETFA (Setaria faberi) (1000 g/ha): 4 | Post-emergence herbicidal damage score, ZEAMX (Zea mays) (1000 g/ha): 1

COC1=C(C)C(=O)N(c2nn(C)c3c2CCC3(C)C)C1O (stereo not drawn) [Compound I4]
Post-emergence herbicidal damage score, ABUTH (Abutilon theophrasti) (1000 g/ha): 5 | Post-emergence herbicidal damage score, ALOMY (Alopecurus myosuroides) (1000 g/ha): 5 | Post-emergence herbicidal damage score, AMARE (Amaranthus retroflexus) (1000 g/ha): 5 | Post-emergence herbicidal damage score, ECHCG (Echinochloa crus-galli) (1000 g/ha): 5 | Post-emergence herbicidal damage score, SETFA (Setaria faberi) (1000 g/ha): 5 | Post-emergence herbicidal damage score, ZEAMX (Zea mays) (1000 g/ha): 3

CCCC1=C(Cl)C(O)N(c2cc(C(C)(C)C#N)n(C)n2)C1=O (stereo not drawn) [Compound E2]
Post-emergence herbicidal damage score, ABUTH (Abutilon theophrasti) (1000 g/ha): 4 | Post-emergence herbicidal damage score, ALOMY (Alopecurus myosuroides) (1000 g/ha): 4 | Post-emergence herbicidal damage score, AMARE (Amaranthus retroflexus) (1000 g/ha): 5 | Post-emergence herbicidal damage score, ECHCG (Echinochloa crus-galli) (1000 g/ha): 5 | Post-emergence herbicidal damage score, SETFA (Setaria faberi) (1000 g/ha): 4 | Post-emergence herbicidal damage score, ZEAMX (Zea mays) (1000 g/ha): 1

CC(C)=C(C)c1cc(N2C(=O)C(C)=C(Cl)C2O)nn1C (stereo not drawn) [Compound B27]
Post-emergence herbicidal damage score, ABUTH (Abutilon theophrasti) (1000 g/ha): 4 | Post-emergence herbicidal damage score, ALOMY (Alopecurus myosuroides) (1000 g/ha): 1 | Post-emergence herbicidal damage score, AMARE (Amaranthus retroflexus) (1000 g/ha): 1 | Post-emergence herbicidal damage score, ECHCG (Echinochloa crus-galli) (1000 g/ha): 0 | Post-emergence herbicidal damage score, SETFA (Setaria faberi) (1000 g/ha): 3 | Post-emergence herbicidal damage score, ZEAMX (Zea mays) (1000 g/ha): 0
